Laboratory results published in patent publication EP0378881B1, “Synthetic peptides and their use as universal carriers for the preparation of immunogenic conjugates suitable for the development of synthetic vaccines” ([…] S.p.A., priority 1989, dated 1993).
Entries after “also recorded” stand apart in the source; their conditions may differ. Where two headings read alike, the source gives them in different places.

How the values were obtained:
[1] = system: anti-CSP antibody response; conditions: cited from earlier work
[2] = system: T-cellular clones which are specific for TT=2; format: cell-based, human
[3] = system: Mononucleated cells of peripheral blood (PBMC); format: cell-based, human
[4] = system: T-cellular clones which are specific for TT=2; format: cell-based, human; remark: listed apart in the source

In the case of H-(Asn-Ala-Asn-Pro)n, the anti-CSP antibody response ([1]; CBA/ca mice) is given as “not able to induce” and the anti-CSP antibody response ([1]; DBA/2 mice) is given as “not able to induce”.

With “Gln-Tyr-Ile-Lys-Ala-Asn-Ser-Lys-Phe-Ile-Gly-Ile-Thr-Glu (QYIKANSKFIGITE; printed: Gln-Tyr-Ile-Lys-Ala-Asn-Ser-Lys-Phe-Ile-Gly-Ile-Thr-Glu) [TT=2, synthetic peptide corresponding to TT segment 830-843]” the “DR alleles in association with which the clone recognizes TT=2” value [2] was “DR1, 2, 4w4 and 7; also recorded: DR5JVM and 6”, the “DR alleles that can be used as restriction molecules” value [2] was “DR1-9, 4 x 4, 5JVM and DRw52b” and the “concentrations of the peptide at which all the clones react (dose-response plot)” value [2] was 0.1 to 2 µM. For the same substance, the “isotype of the II-class molecules recognized by the clones” value [2] was “restricted DRs”, the “proliferation of the isolated clones in response to the antigen” value [2] was “proliferate responsively” and the “TT=2-specific cells as share of all the T cells which were specific for the Tetanus Toxoid (TT)” value [3] was ≤ 5%. The “minimum antigenic sequence (epitope) recognized by the T-cells” value [4] was “single 831-842 epitope”.

For “NANP₄₀: polymer (Asn-Ala-Asn-Pro)₄₀ obtained by polymerizing the activated monomer”, the “responder status of the mouse strain” value ([1]; C57/8L/6 mice) is given as “natural responders”, the “responder status of the mouse strain” value ([1]; CB4/ca mice) is given as “non-responders” and the “responder status of the mouse strain” value ([1]; DBA/2 mice) is given as “non-responders”.
